Assays:
[1] = target: T1, RXRB (retinoid X receptor, beta) (Homo sapiens, UniProt P28702); experiment: ATG_RXRb_TRANS: Factorial reporter gene assay (HepG2); assay type: cell-based; details: HepG2; scale not given, looks like -log10 of molar active concentration; 0 = no activity
T1 construct: expressed in transfected cells; host or cells: HepG2
T1 sequence (P28702 1-533): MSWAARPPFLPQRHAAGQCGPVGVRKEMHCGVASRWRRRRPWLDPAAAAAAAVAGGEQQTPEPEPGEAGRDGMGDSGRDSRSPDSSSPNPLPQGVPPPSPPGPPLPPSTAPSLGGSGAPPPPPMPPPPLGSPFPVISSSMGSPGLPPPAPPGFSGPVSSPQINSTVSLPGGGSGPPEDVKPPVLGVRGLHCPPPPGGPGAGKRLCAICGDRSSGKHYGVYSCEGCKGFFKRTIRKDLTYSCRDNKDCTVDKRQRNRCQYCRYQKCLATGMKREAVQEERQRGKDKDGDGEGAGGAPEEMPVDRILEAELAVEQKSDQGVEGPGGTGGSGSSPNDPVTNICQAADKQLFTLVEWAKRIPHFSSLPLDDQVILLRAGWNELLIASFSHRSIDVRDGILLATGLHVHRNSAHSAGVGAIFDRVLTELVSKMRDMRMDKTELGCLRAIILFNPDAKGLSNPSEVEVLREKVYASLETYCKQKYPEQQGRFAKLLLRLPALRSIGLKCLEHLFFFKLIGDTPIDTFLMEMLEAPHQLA
Experimental: A multiple reporter transcription unit (MRTU) library consisting of 48 transcription factor binding sites was transfected into the HepG2 human liver hepatoma cell line. In addition to the cis-acting reporter genes (CIS), a modification of the approach was used to generate a trans-system (TRANS) with a mammalian one-hybrid assay consisting of an additional 25 MRTU library reporting the activity of nuclear receptor super-family members. […] These assays were performed by Attagene Inc. (Morrisville NC) under contract to EPA.
In addition to the cis-acting reporter genes (CIS), a modification of the approach was used to generate a trans-system (TRANS) with a mammalian one-hybrid assay consisting of an additional 25 MRTU library reporting the activity of nuclear receptor super-family members. […] Chemicals were then tested in the CIS and TRANS assays at seven concentrations starting at the MTC and followed by three-fold serial dilutions. These assays were performed by Attagene Inc. (Morrisville NC) under contract to EPA. Detailed description of the methods, data and analysis methods for this dataset will be presented in a separate publication.

LXRa (NR1H2) = experiment: NCGC_LXR_Agonist: GAL4 BLAM Reporter gene assay: LXRa; assay type: cell-based, human; details: agonist mode; scale not given, looks like -log10 of molar active concentration; 0 = no activity
Experimental: (§1) These assays measure binding constants and enzyme inhibition values for nuclear receptors. The targets include [drawing 67] , [drawing 68] , [drawing 69] , [drawing 70] , [drawing 71] , [drawing 72] , [drawing 73] , [drawing 74] , [drawing 75] and [drawing 76] . Each of the nuclear receptor targets was measured in agonist mode. Assays were run at the NIH Chemical Genomics Center (Rockville, MD).
(§2) Cell-based HTS Assays: These assays measuring binding constants and enzyme inhibition values for nuclear receptors. The targets include AR, ER, FXR, LXR, PPARα, PPARδ, PPARγ, RXRα, RXRβ and PXR. Each of the nuclear receptor targets was measured in both agonist and antagonist mode, but the antagonist data is still undergoing analysis due to possible interference between cytotoxicity and assay activity, so antagonist mode data were not used in the present analysis. Assays were run at the NIH Chemical Genomics Center (Rockville, MD) as part of the Tox21 collaboration. […] The R^2 was required to be ≥0.5. Values where only the highest concentration exceeded 50% activity were excluded to eliminate weak or false positives. Detailed description of the methods, data and analysis methods for this dataset will be presented in a separate publication.

Rat Liver = details: rat chronic study, liver, neoplastic lesion; coded 6 / 0, code not explained here; ref ToxRefDB; cited from earlier work
PXR (NR1I2) = target: T2, PXR (NR1I2) (Homo sapiens, UniProt O75469); experiment: ATG_PXRE_CIS: Factorial reporter gene assay (HepG2); assay type: cell-based; design: endogenous in cells; host or cells: HepG2; details: HepG2; scale not given, looks like -log10 of molar active concentration; 0 = no activity
T2 sequence (O75469 1-434): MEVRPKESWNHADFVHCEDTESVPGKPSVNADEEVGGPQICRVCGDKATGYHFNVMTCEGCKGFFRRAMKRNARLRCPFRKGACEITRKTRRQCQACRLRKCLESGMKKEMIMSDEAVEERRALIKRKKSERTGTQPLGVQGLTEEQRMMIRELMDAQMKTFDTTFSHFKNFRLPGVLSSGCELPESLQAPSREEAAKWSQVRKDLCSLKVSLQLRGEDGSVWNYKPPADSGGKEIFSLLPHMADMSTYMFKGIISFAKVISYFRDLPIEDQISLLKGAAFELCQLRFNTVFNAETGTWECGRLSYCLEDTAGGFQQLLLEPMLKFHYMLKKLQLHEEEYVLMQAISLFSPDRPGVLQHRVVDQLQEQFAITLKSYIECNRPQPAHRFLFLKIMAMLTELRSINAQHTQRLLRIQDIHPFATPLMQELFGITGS
Summary of the method: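 Mammalian one-hybrid trans reporters (25 MRTUs) measured ERRg, FXR and PPARg; PXRE used cis reporters from a 48-site MRTU library. Both were run in HepG2. Dosing: seven concentrations, MTC as the highest, three-fold dilution series.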

PPARg (PPARG) = target: T3, PPARg (PPARG) (Homo sapiens, UniProt P37231); experiment: NCGC_PPARg_Agonist: GAL4 BLAM Reporter gene assay: PPARg; assay type: cell-based; design: expressed in transfected cells; host or cells: HEK293; details: agonist mode; scale not given, looks like -log10 of molar active concentration; 0 = no activity
T3 sequence (P37231 1-505): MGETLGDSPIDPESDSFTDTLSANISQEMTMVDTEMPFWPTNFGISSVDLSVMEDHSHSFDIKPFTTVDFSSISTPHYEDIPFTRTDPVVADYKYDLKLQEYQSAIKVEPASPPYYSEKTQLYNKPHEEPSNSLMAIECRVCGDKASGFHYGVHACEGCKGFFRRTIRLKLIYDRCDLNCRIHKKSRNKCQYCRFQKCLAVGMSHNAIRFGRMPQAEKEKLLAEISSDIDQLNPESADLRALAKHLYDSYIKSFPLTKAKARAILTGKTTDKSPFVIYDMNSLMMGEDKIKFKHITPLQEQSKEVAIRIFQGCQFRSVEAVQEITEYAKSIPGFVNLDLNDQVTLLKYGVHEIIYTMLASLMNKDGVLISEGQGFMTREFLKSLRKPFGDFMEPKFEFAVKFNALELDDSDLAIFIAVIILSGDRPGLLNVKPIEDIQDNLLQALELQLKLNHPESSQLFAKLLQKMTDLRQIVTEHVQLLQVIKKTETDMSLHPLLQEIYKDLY
Experimental: as §1, §2

Row | SMILES | ATG_RXRb_TRANS [1] | NCGC_LXR_Agonist (LXRa (NR1H2)) | CHR_Rat_Liver_3_NeoplasticLesion (Rat Liver) | ATG_PXRE_CIS (PXR (NR1I2)) | NCGC_PPARg_Agonist (PPARg (PPARG))
1 | CCC(C)n1c(=O)[nH]c(C)c(Br)c1=O (stereo not drawn) [r43] | 0 | 0 | 0 | 4.347 | 0
2 | COc1ccc(-c2ccccc2)cc1NNC(=O)OC(C)C [r38] | 0 | 0 | 0 | 4.921 | 0
3 | CC(C)N1C(=O)N(c2ccccc2)CS/C1=N\C(C)(C)C [r45] | 0 | 0 | 0 | 5.456 | 0
4 | Cc1ccccc1CO[C@@H]1C[C@@]2(C(C)C)CC[C@]1(C)O2 [r64] | 0 | 0 | 0 | 5.201 | 0
5 | CCOC(=O)C(Cl)Cc1cc(-n2nc(C)n(C(F)F)c2=O)c(F)cc1Cl (stereo not drawn) [r54] | 0 | 0 | 0 | 4.328 | 0
6 | N#Cc1cc(Br)c(O)c(Br)c1 [r44] | 0 | 0 | 0 | 4.523 | 0
